Results: patent US8722665B2, “Cinnamido-pyrrolo[2,1-C][1,4]benzodiazepines as potential anticancer agents and process for the preparation thereof” (Council of Scientific & Industrial Research, priority 2008, dated 2014)

How the values were obtained:
Assay type in all cases: cell-based, human
Renal cell lines = assay: In vitro cytotoxicity (SRB), cancer panel; conditions: average of six to eight cell lines, 48 h exposure
Protocol: (§1) The compounds were evaluated for in vitro anticancer activity against sixty human tumour cells derived from nine cancer types (leukemia, non-small-cell lung, colon, CNS, melanoma, ovarian, prostate, and breast cancer) as shown in Table 1a. For each compound, dose response curves for each cell line were measured at a minimum of five concentrations at 10 fold dilutions. A protocol of 48 h continuous drug exposure was used and a sulforhodamine B (SRB) protein assay was used to estimate cell viability or growth. The concentration causing 50% cell growth inhibition (GI50), total cell growth inhibition (TGI 0% growth) and 50% cell death (LC50, −50% growth) compared with the control was calculated. The Log10 GI50 (concentration in mol/L causing 50% growth inhibition) values for Cinnamido-pyrrolo[2,1-c][1,4]benzodiazepine (8b) is listed in Table 2.

[1] = system: Non-small-cell lung cell lines; assay: In vitro cytotoxicity (SRB), cancer panel; conditions: average of six to eight cell lines, 48 h exposure
Protocol: as §1

Prostate cell lines = assay: In vitro cytotoxicity (SRB), cancer panel; conditions: average of six to eight cell lines, 48 h exposure
Protocol: as §1

Ovarian cell lines = assay: In vitro cytotoxicity (SRB), cancer panel; conditions: average of six to eight cell lines, 48 h exposure
Protocol: as §1

Colon cell lines = assay: In vitro cytotoxicity (SRB), cancer panel; conditions: average of six to eight cell lines, 48 h exposure
Protocol: as §1

Leukemia cell lines = assay: In vitro cytotoxicity (SRB), cancer panel; conditions: average of six to eight cell lines, 48 h exposure
Protocol: as §1

Breast cell lines = assay: In vitro cytotoxicity (SRB), cancer panel; conditions: average of six to eight cell lines, 48 h exposure
Protocol: as §1

CNS cell lines = assay: In vitro cytotoxicity (SRB), cancer panel; conditions: average of six to eight cell lines, 48 h exposure
Protocol: as §1

Melanoma cell lines = assay: In vitro cytotoxicity (SRB), cancer panel; conditions: average of six to eight cell lines, 48 h exposure
Protocol: as §1

SNB-75 = assay: In vitro cytotoxicity (SRB); conditions: SNB-75 (CNS); 48 h continuous drug exposure
Protocol: as §1

SF-539 = assay: In vitro cytotoxicity (SRB); conditions: SF-539 (CNS); 48 h continuous drug exposure
Protocol: as §1

NCI-H522 = assay: In vitro cytotoxicity (SRB); conditions: NCI-H522 (Non-small cell lung); 48 h continuous drug exposure
Protocol: as §1

PC-3 = assay: In vitro cytotoxicity (SRB); conditions: PC-3 (Prostate); 48 h continuous drug exposure
Protocol: as §1

U251 = assay: In vitro cytotoxicity (SRB); conditions: U251 (CNS); 48 h continuous drug exposure
Protocol: as §1

SR = assay: In vitro cytotoxicity (SRB); conditions: SR (Leukemia); 48 h continuous drug exposure
Protocol: as §1

HT29 = assay: In vitro cytotoxicity (SRB); conditions: HT29 (Colon); 48 h continuous drug exposure
Protocol: as §1

MCF7 = assay: In vitro cytotoxicity (SRB); conditions: MCF7 (Breast); 48 h continuous drug exposure
Protocol: as §1

MOLT-4 = assay: In vitro cytotoxicity (SRB); conditions: MOLT-4 (Leukemia); 48 h continuous drug exposure
Protocol: as §1

COLO 205 = assay: In vitro cytotoxicity (SRB); conditions: COLO 205 (Colon); 48 h continuous drug exposure
Protocol: as §1

HOP-92 = assay: In vitro cytotoxicity (SRB); conditions: 48 h continuous drug exposure
Protocol: as §1

786-0 = assay: In vitro cytotoxicity (SRB); conditions: 786-0 (Renal); 48 h continuous drug exposure
Protocol: as §1

A498 = assay: In vitro cytotoxicity (SRB); conditions: A498 (Renal); 48 h continuous drug exposure
Protocol: as §1

SK-MEL-5 = assay: In vitro cytotoxicity (SRB); conditions: SK-MEL-5 (Melanoma); 48 h continuous drug exposure
Protocol: as §1

OVCAR-8 = assay: In vitro cytotoxicity (SRB); conditions: OVCAR-8 (Ovarian); 48 h continuous drug exposure
Protocol: as §1

MDA-MB-435 = assay: In vitro cytotoxicity (SRB); conditions: MDA-MB-435 (Breast); 48 h continuous drug exposure
Protocol: as §1

IGROV1 = assay: In vitro cytotoxicity (SRB); conditions: IGROV1 (Ovarian); 48 h continuous drug exposure
Protocol: as §1

MALME-3M = assay: In vitro cytotoxicity (SRB); conditions: MALME-3M (Melanoma); 48 h continuous drug exposure
Protocol: as §1

MDA-MB-468 = assay: In vitro cytotoxicity (SRB); conditions: MDA-MB-468 (Breast); 48 h continuous drug exposure
Protocol: as §1

DU-145 = assay: In vitro cytotoxicity (SRB); conditions: DU-145 (Prostate); 48 h continuous drug exposure
Protocol: as §1

SF-268 = assay: In vitro cytotoxicity (SRB); conditions: SF-268 (CNS); 48 h continuous drug exposure
Protocol: as §1

ACHN = assay: In vitro cytotoxicity (SRB); conditions: ACHN (Renal); 48 h continuous drug exposure
Protocol: as §1

OVCAR-3 = assay: In vitro cytotoxicity (SRB); conditions: OVCAR-3 (Ovarian); 48 h continuous drug exposure
Protocol: as §1

UO-31 = assay: In vitro cytotoxicity (SRB); conditions: UO-31 (Renal); 48 h continuous drug exposure
Protocol: as §1

RPMI-8226 = assay: In vitro cytotoxicity (SRB); conditions: RPMI-8226 (Leukemia); 48 h continuous drug exposure
Protocol: as §1

HCC-2998 = assay: In vitro cytotoxicity (SRB); conditions: HCC-2998 (Colon); 48 h continuous drug exposure
Protocol: as §1

BT-549 = assay: In vitro cytotoxicity (SRB); conditions: BT-549 (Breast); 48 h continuous drug exposure
Protocol: as §1

LOX IMVI = assay: In vitro cytotoxicity (SRB); conditions: LOX IMVI (Melanoma); 48 h continuous drug exposure
Protocol: as §1

## COc1cc(/C=C/C(=O)N2CCN(C(=O)c3cc(OC)c(OC)c(OC)c3)CC2)ccc1OCCCOc1cc2c(cc1OC)C(=O)N1CCC[C@H]1C=N2 [8b, 7-methoxy-8-{3-(2-methoxy-4-(E)-3-oxo-3-[4-(3,4,5-trimethoxybenzoyl)piperazino]-1-propenylphenoxy)propoxy}-(11aS)-2,3,5,11^a-tetrahydro-5H-pyrrolo[2,1-c][1,4]benzo-diazepine-5-one]
Renal cell lines
  Log10 GI50: −6.20 mol/L
[1]
  Log10 GI50: −6.31 mol/L
Prostate cell lines
  Log10 GI50: −6.44 mol/L
Ovarian cell lines
  Log10 GI50: −6.36 mol/L
Colon cell lines
  Log10 GI50: −6.43 mol/L
Leukemia cell lines
  Log10 GI50: −6.77 mol/L
Breast cell lines
  Log10 GI50: −6.51 mol/L
CNS cell lines
  Log10 GI50: −6.78 mol/L
Melanoma cell lines
  Log10 GI50: −6.64 mol/L
SNB-75
  GI50: 260 nM
SF-539
  GI50: 250 nM
NCI-H522
  GI50: 660 nM
PC-3
  GI50: 340 nM
U251
  GI50: 270 nM
SR
  GI50: 20 nM
HT29
  GI50: 400 nM
MCF7
  GI50: 130 nM
MOLT-4
  GI50: 200 nM
COLO 205
  GI50: 180 nM
HOP-92; HOP-92, first line so named (Non-small cell lung)
  GI50: 320 nM
HOP-92; HOP-92, second line so named (Non-small cell lung)
  GI50: 170 nM
786-0
  GI50: 490 nM
A498
  GI50: 210 nM
SK-MEL-5
  GI50: 190 nM
OVCAR-8
  GI50: 260 nM
MDA-MB-435
  GI50: 170 nM
IGROV1
  GI50: 270 nM
MALME-3M
  GI50: 200 nM
MDA-MB-468
  GI50: 140 nM
DU-145
  GI50: 360 nM
SF-268
  GI50: 320 nM
ACHN
  GI50: 2750 nM
OVCAR-3
  GI50: 290 nM
UO-31
  GI50: 1150 nM
RPMI-8226
  GI50: 650 nM
HCC-2998
  GI50: 360 nM
BT-549
  GI50: 130 nM
LOX IMVI
  GI50: 180 nM
